Results reported in ChEMBL document CHEMBL4715697, “Synthesis and biological activity of benzamide DNA minor groove binders” (2016).

Experiments:
Type in all cases: functional
T47D = assay: Growth inhibition of human T47D cells assessed as cell growth at 0.1 uM incubated for 48 hrs by sulforhodamine B assay relative to control; conditions: read-out: Activity
MCF7 [1] = assay: Growth inhibition of human MCF7 cells assessed as cell growth at 0.01 uM incubated for 48 hrs by sulforhodamine B assay relative to control; conditions: read-out: Activity
SN12C = assay: Growth inhibition of human SN12C cells assessed as cell growth at 0.01 uM incubated for 48 hrs by sulforhodamine B assay relative to control; conditions: read-out: Activity
DU-145 [2] = assay: Growth inhibition of human DU-145 cells incubated for 48 hrs by sulforhodamine B assay
MDA-MB-231 = assay: Growth inhibition of human MDA-MB-231 cells assessed as cell growth at 0.1 uM incubated for 48 hrs by sulforhodamine B assay relative to control; conditions: read-out: Activity
OVCAR-8 [3] = assay: Growth inhibition of human OVCAR-8 cells assessed as cell growth at 0.01 uM incubated for 48 hrs by sulforhodamine B assay relative to control; conditions: read-out: Activity
UO-31 [4] = assay: Growth inhibition of human UO-31 cells assessed as cell growth at 0.1 uM incubated for 48 hrs by sulforhodamine B assay relative to control; conditions: read-out: Activity
SNB-75 = assay: Growth inhibition of human SNB-75 cells assessed as cell growth at 0.01 uM incubated for 48 hrs by sulforhodamine B assay relative to control; conditions: read-out: Activity
A498 [5] = assay: Growth inhibition of human A498 cells assessed as cell growth at 1 uM incubated for 48 hrs by sulforhodamine B assay relative to control; conditions: read-out: Activity
MOLT-4 [6] = assay: Growth inhibition of human MOLT-4 cells incubated for 48 hrs by sulforhodamine B assay
A498 [7] = assay: Growth inhibition of human A498 cells assessed as cell growth at 0.1 uM incubated for 48 hrs by sulforhodamine B assay relative to control; conditions: read-out: Activity
NCI/ADR-RES = assay: Growth inhibition of human NCI/ADR-RES cells assessed as cell growth at 0.01 uM incubated for 48 hrs by sulforhodamine B assay relative to control; conditions: read-out: Activity
SF-268 = assay: Growth inhibition of human SF-268 cells assessed as cell growth at 0.1 uM incubated for 48 hrs by sulforhodamine B assay relative to control; conditions: read-out: Activity
IGROV-1 = assay: Growth inhibition of human IGROV-1 cells assessed as cell growth at 100 uM incubated for 48 hrs by sulforhodamine B assay relative to control; conditions: read-out: Activity
SK-MEL-2 [8] = assay: Growth inhibition of human SK-MEL-2 cells assessed as cell growth at 0.01 uM incubated for 48 hrs by sulforhodamine B assay relative to control; conditions: read-out: Activity
HCT-116 = assay: Growth inhibition of human HCT-116 cells assessed as cell growth at 1 uM incubated for 48 hrs by sulforhodamine B assay relative to control; conditions: read-out: Activity
NCI-H460 = assay: Growth inhibition of human NCI-H460 cells incubated for 48 hrs by sulforhodamine B assay
DU-145 [9] = assay: Growth inhibition of human DU-145 cells assessed as cell growth at 100 uM incubated for 48 hrs by sulforhodamine B assay relative to control; conditions: read-out: Activity
A549 = assay: Growth inhibition of human A549/ATCC cells assessed as cell growth at 100 uM incubated for 48 hrs by sulforhodamine B assay relative to control; conditions: read-out: Activity
NCI-H226 = assay: Growth inhibition of human NCI-H226 cells assessed as cell growth at 0.01 uM incubated for 48 hrs by sulforhodamine B assay relative to control; conditions: read-out: Activity
OVCAR-8 [10] = assay: Growth inhibition of human OVCAR-8 cells incubated for 48 hrs by sulforhodamine B assay
SK-OV-3 = assay: Growth inhibition of human SK-OV-3 cells incubated for 48 hrs by sulforhodamine B assay
PC-3 = assay: Growth inhibition of human PC-3 cells assessed as cell growth at 0.1 uM incubated for 48 hrs by sulforhodamine B assay relative to control; conditions: read-out: Activity
SW-620 = assay: Growth inhibition of human SW-620 cells assessed as cell growth at 100 uM incubated for 48 hrs by sulforhodamine B assay relative to control; conditions: read-out: Activity
RXF 393 = assay: Growth inhibition of human RXF 393 cells assessed as cell growth at 1 uM incubated for 48 hrs by sulforhodamine B assay relative to control; conditions: read-out: Activity
HOP-62 = assay: Growth inhibition of human HOP-62 cells incubated for 48 hrs by sulforhodamine B assay
MOLT-4 [11] = assay: Growth inhibition of human MOLT-4 cells assessed as cell growth at 100 uM incubated for 48 hrs by sulforhodamine B assay relative to control; conditions: read-out: Activity
786-0 = assay: Growth inhibition of human 786-0 cells assessed as cell growth at 1 uM incubated for 48 hrs by sulforhodamine B assay relative to control; conditions: read-out: Activity
SK-MEL-2 [12] = assay: Growth inhibition of human SK-MEL-2 cells assessed as cell growth at 1 uM incubated for 48 hrs by sulforhodamine B assay relative to control; conditions: read-out: Activity
SF-539 = assay: Growth inhibition of human SF-539 cells assessed as cell growth at 0.1 uM incubated for 48 hrs by sulforhodamine B assay relative to control; conditions: read-out: Activity
OVCAR-4 = assay: Growth inhibition of human OVCAR-4 cells assessed as cell growth at 1 uM incubated for 48 hrs by sulforhodamine B assay relative to control; conditions: read-out: Activity
UACC-257 = assay: Growth inhibition of human UACC-257 cells assessed as cell growth at 0.01 uM incubated for 48 hrs by sulforhodamine B assay relative to control; conditions: read-out: Activity
MCF7 [13] = assay: Growth inhibition of human MCF7 cells incubated for 48 hrs by sulforhodamine B assay
UO-31 [14] = assay: Growth inhibition of human UO-31 cells incubated for 48 hrs by sulforhodamine B assay
[15] = read-out: LC50 (the source's name)
[16] = read-out: pLC50 (the source's name) (converted)

## CC(=O)Nc1cc(CCl)cc(NC(=O)c2ccc(C(=O)Nc3cccc(NC(=O)CCCN(C)C)c3)cc2)c1
T47D
  growth at 0.1 µM: 103%
MCF7 [1]
  growth at 0.01 µM: 88%
SN12C
  growth at 0.01 µM: 104%
DU-145 [2]; read-out: GI50
  GI50: > 100 µM
DU-145 [2]; [15]
  CC50: > 100 µM
DU-145 [2]; read-out: TGI
  TGI: > 100 µM
DU-145 [2]; read-out: pGI50 (converted)
  GI50: > 100 µM
DU-145 [2]; [16]
  CC50: > 100 µM
DU-145 [2]; read-out: pTGI
  TGI: > 100 µM
MDA-MB-231
  growth at 0.1 µM: 106%
OVCAR-8 [3]
  growth at 0.01 µM: 102%
UO-31 [4]
  growth at 0.1 µM: 97%
SNB-75
  growth at 0.01 µM: 82%
A498 [5]
  growth at 1 µM: 73%
MOLT-4 [6]; read-out: GI50
  GI50: > 100 µM
MOLT-4 [6]; [15]
  CC50: > 100 µM
MOLT-4 [6]; read-out: TGI
  TGI: > 100 µM
MOLT-4 [6]; read-out: pGI50 (converted)
  GI50: > 100 µM
MOLT-4 [6]; [16]
  CC50: > 100 µM
MOLT-4 [6]; read-out: pTGI
  TGI: > 100 µM
A498 [7]
  growth at 0.1 µM: 73%
NCI/ADR-RES
  growth at 0.01 µM: 105%
SF-268
  growth at 0.1 µM: 101%
IGROV-1
  growth at 100 µM: 100%
SK-MEL-2 [8]
  growth at 0.01 µM: 107%
HCT-116
  growth at 1 µM: 107%
NCI-H460; read-out: GI50
  GI50: > 100 µM
NCI-H460; [15]
  CC50: > 100 µM
NCI-H460; read-out: TGI
  TGI: > 100 µM
NCI-H460; read-out: pGI50 (converted)
  GI50: > 100 µM
NCI-H460; [16]
  CC50: > 100 µM
NCI-H460; read-out: pTGI
  TGI: > 100 µM
DU-145 [9]
  growth at 100 µM: 94%
A549
  growth at 100 µM: 88%
NCI-H226
  growth at 0.01 µM: 95%
OVCAR-8 [10]; read-out: GI50
  GI50: > 100 µM
OVCAR-8 [10]; [15]
  CC50: > 100 µM
OVCAR-8 [10]; read-out: TGI
  TGI: > 100 µM
OVCAR-8 [10]; read-out: pGI50 (converted)
  GI50: > 100 µM
OVCAR-8 [10]; [16]
  CC50: > 100 µM
OVCAR-8 [10]; read-out: pTGI
  TGI: > 100 µM
SK-OV-3; read-out: GI50
  GI50: > 100 µM
SK-OV-3; read-out: LC50
  LC50 (concentration killing 50% of cells): > 100 µM
SK-OV-3; read-out: TGI
  TGI: > 100 µM
SK-OV-3; read-out: pGI50 (converted)
  GI50: > 100 µM
SK-OV-3; read-out: pLC50 (converted)
  LC50 (concentration killing 50% of cells): > 100 µM
SK-OV-3; read-out: pTGI
  TGI: > 100 µM
PC-3
  growth at 0.1 µM: 103%
SW-620
  growth at 100 µM: 92%
RXF 393
  growth at 1 µM: 88%
HOP-62; read-out: GI50
  GI50: > 100 µM
HOP-62; [15]
  CC50: > 100 µM
HOP-62; read-out: TGI
  TGI: > 100 µM
HOP-62; read-out: pGI50 (converted)
  GI50: > 100 µM
HOP-62; [16]
  CC50: > 100 µM
HOP-62; read-out: pTGI
  TGI: > 100 µM
MOLT-4 [11]
  growth at 100 µM: 99%
786-0
  growth at 1 µM: 105%
SK-MEL-2 [12]
  growth at 1 µM: 109%
SF-539
  growth at 0.1 µM: 103%
OVCAR-4
  growth at 1 µM: 91%
UACC-257
  growth at 0.01 µM: 97%
MCF7 [13]; read-out: GI50
  GI50: 30.1 µM
MCF7 [13]; [15]
  CC50: > 100 µM
MCF7 [13]; read-out: TGI
  TGI: > 100 µM
MCF7 [13]; read-out: pGI50 (converted)
  GI50: 30.2 µM
MCF7 [13]; [16]
  CC50: > 100 µM
MCF7 [13]; read-out: pTGI
  TGI: > 100 µM
UO-31 [14]; read-out: GI50
  GI50: > 100 µM
UO-31 [14]; [15]
  CC50: > 100 µM
UO-31 [14]; read-out: TGI
  TGI: > 100 µM
UO-31 [14]; read-out: pGI50 (converted)
  GI50: > 100 µM
UO-31 [14]; [16]
  CC50: > 100 µM
UO-31 [14]; read-out: pTGI
  TGI: > 100 µM
